Data published in patent US20240082238A1, “COMPOSITIONS AND METHODS FOR TREATING CANCER” (UNIVERSITY OF IOWA RESEARCH FOUNDATION, priority 2021, published 2024).

What was measured:
[1] = test system: cancer cell lines; assay: Cytotoxicity (MTS), CIP2b with checkpoint inhibitors; assay type: cell-based; conditions: AZD7762 50 and 75 nM; MK1775 150 and 250 nM
Experimental: (§1) Cytotoxicity assay. Hec50co cells were seeded at 1500 cells per well in 96-well plates for 24 h in a complete medium. Later, the medium was removed and PTX, CIP2b, or CIP (all dissolved in DMSO and diluted in complete medium) were added to cells as either monotherapies or in combinations, and the plates were incubated for 72 hours. Then, the complete medium was removed and MTS reagent in the complete medium was added to wells, and the plates were incubated for 1-4 hours according to the manufacturer's protocol. Finally, the absorbance was recorded at 490 nm using a Spectra Max plus 384 Microplate Spectrophotometer (Molecular Devices, Sunnyvale, CA). Percentage cell viability was expressed as the average absorbance of the test group relative to that of the control group (untreated cells). The concentration that inhibits proliferation of 50% of cells compared to control (IC50) was calculated using GraphPad Prism (La Jolla, CA). Synergism was detected following the Chou-Talalay method (CI<1 indicates synergism) (Chou T C. Cancer research. 2010; 70(2):440-6, doi: 10.1158/0008-5472.CAN-09-1947) using CompuSyn software (Ver. 1.0).
Cytotoxicity was evaluated using the MTS assay described above.

[2] = biological target: T1, human Topo IIα (Homo sapiens, UniProt P11388); assay: Topoisomerase II inhibition assay (plasmid-based); assay type: biochemical; conditions: drug final concentration 100 μM; read-out: percentage of Topo II inhibition
T1 construct: purchased TopoGEN Inc. TG1001-1A
Experimental: Topoisomerase II inhibition assay. A plasmid-based Topo II assay (Cat. No. TG1001-1A, TopoGEN Inc., Buena Vista, CO) was performed according to the manufacturer's instructions. In this experiment, 1 μL of tested compounds (PTX, CIP, CIP2b, ETO) at a concentration of 2 mM was mixed with 4 μL of the reaction buffer (mixture of buffer A (0.5 M Tris-HCl (pH 8), 1.50 M NaCl, 100 mM MgCl2, 5 mM Dithiothreitol, 300 μg BSA/mL) and buffer B (10× ATP Buffer), and deionized water was added to make 18 μL solution. This was followed by adding 1 μL of catenated DNA and 1 μL of human Topo IIα (8 U/μL) (drug final concentration was 100 μM). Additionally, decatenated DNA (De-CT DNA) and catenated DNA (CT DNA)±Topo II were used as a control (i.e., not containing drugs). Moreover, relaxed DNA was added as another control in this assay. Similar to Topo I assay, samples were then incubated on a heating block set at 37° C. for 30 minutes. Then, the reaction was stopped by the addition of a 5× stop buffer. Samples were then loaded directly into the wells of a 1% agarose gel containing 1 μg/mL ethidium bromide. The gel was run at 150 V until the dye front had traveled approximately 5 cm (run time was approximately 2 h). The gel was then washed with deionized water for 30 minutes before imaging. The image was taken using an Invitrogen iBright CL1500 Imaging System. The intensity of the final bands in the gel was quantified using ImageJ, and the results are expressed as the percentage of Topo II inhibition.

[3] = test system: advanced pancreatic ductal adenocarcinoma (PDAC); conditions: patients with advanced PDAC; cited from earlier work
[4] = test system: Hec50co cells; assay: Cytotoxicity assay (MTS), Hec50co cells; assay type: cell-based, human; conditions: 10 μM CIP added to PTX, 72 h
Experimental: as §1, with “1.0). […]” for “1.0).”

[5] = biological target: T2, human Topo I (Homo sapiens, UniProt P11387); assay: Topoisomerase I inhibition assay (plasmid-based); assay type: biochemical; conditions: drug final concentration 100 μM
T2 construct: purchased TopoGEN Inc. TG1015-1A
T2 sequence (P11387 1-765): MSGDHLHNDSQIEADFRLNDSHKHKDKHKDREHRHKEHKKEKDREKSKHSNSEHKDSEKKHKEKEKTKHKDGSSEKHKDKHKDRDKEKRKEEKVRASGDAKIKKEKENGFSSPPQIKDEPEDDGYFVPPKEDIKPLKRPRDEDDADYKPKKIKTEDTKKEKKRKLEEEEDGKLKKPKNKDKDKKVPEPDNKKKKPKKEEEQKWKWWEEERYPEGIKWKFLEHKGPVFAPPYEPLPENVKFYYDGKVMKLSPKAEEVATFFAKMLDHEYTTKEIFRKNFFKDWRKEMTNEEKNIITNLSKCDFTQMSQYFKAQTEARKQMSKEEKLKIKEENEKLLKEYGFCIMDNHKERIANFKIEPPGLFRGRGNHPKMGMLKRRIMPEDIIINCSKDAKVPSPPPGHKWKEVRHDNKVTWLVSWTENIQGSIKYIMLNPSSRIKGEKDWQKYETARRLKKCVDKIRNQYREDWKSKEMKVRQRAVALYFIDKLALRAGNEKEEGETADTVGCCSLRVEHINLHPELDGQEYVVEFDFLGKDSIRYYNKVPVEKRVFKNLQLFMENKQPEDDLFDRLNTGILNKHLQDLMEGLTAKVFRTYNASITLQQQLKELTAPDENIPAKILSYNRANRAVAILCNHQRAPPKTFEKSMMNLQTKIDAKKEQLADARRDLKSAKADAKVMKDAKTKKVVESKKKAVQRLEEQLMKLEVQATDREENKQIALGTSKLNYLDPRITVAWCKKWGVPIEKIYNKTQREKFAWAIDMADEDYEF
Experimental: Topoisomerase I inhibition assay. A plasmid-based Topo I assay (Cat. No. TG1015-1A, TopoGEN Inc., Buena Vista, CO) was performed according to the manufacturer's instructions. Briefly, 1 μL of the test compounds (PTX, CIP, CIP2b, or CAM) at a concentration of 2 mM, was mixed with 2 μL of the reaction buffer (10× tris-glycine-SDS), and deionized water was added to make 18 μL solution. This was followed by adding 1 μL of supercoiled DNA (SC DNA) and 1 μL of human Topo I (10 U/μL) (drug final concentration was 100 μM). Also, SC DNA±Topo I was used as a control (i.e., not containing drugs). In addition, relaxed DNA was added as another control in this assay. Samples were incubated on a heating block (Isotemp 125 D Digital Heat Block, ThermoFisher Scientific) set at 37° C. for 30 minutes. Then, the reaction was stopped by adding a 5× stop buffer. Samples were then loaded directly into the wells of a 1% agarose gel (Research Products International, Mount Prospect, IL). The gel was run at 150 V until the dye front had traveled approximately 5 cm (run time was approximately 2 hours). The gel was then stained with 1 μg/mL ethidium bromide in deionized water for 15 minutes, and this was followed by de-staining (washing) with deionized water for 30 min before imaging. The image was then taken using an Invitrogen iBright CL 1500 Imaging System (ThermoFisher Scientific). The intensity of the final bands in the gel was quantified using ImageJ, and the results are expressed as the percentage of Topo I inhibition.

T1 sequence (P11388 whole entry): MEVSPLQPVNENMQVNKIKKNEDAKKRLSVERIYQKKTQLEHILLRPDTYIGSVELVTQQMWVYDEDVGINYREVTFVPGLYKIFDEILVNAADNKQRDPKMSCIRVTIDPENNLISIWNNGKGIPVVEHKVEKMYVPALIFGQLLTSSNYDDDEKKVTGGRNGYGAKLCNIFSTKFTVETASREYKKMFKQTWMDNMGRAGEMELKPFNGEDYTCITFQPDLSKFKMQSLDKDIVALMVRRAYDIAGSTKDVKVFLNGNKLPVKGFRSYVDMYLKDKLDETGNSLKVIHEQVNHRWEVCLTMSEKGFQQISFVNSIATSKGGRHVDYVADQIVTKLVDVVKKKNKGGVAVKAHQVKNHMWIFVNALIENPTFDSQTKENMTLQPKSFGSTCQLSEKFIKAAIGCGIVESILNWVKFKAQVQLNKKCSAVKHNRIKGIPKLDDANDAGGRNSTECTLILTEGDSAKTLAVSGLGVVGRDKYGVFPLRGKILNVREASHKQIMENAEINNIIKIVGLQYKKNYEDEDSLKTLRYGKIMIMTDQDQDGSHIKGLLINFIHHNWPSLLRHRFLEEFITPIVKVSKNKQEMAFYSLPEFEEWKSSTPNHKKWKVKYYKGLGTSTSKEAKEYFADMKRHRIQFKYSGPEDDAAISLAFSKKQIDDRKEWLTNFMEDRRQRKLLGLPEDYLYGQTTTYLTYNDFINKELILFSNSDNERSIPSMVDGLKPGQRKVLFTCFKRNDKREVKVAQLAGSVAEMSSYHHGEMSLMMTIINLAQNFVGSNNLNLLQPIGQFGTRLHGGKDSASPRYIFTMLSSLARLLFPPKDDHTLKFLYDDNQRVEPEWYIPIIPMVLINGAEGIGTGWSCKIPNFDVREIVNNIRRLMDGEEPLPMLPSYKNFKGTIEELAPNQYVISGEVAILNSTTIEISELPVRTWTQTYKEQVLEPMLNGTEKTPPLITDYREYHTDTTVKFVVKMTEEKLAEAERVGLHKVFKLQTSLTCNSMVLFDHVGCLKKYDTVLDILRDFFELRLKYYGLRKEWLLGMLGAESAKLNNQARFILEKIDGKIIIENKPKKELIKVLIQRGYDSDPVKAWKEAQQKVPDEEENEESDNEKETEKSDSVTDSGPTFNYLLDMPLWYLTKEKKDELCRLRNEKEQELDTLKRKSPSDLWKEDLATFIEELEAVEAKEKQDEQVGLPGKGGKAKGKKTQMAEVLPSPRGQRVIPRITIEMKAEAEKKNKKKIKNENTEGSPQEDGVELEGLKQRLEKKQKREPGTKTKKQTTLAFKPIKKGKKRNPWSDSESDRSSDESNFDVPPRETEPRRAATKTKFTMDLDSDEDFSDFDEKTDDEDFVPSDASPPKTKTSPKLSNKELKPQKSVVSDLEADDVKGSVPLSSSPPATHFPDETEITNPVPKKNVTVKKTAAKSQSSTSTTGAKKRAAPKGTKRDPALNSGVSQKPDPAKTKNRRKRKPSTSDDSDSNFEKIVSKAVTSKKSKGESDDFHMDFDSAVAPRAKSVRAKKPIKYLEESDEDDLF

| Structure (SMILES) | potentiation or synergism in combination with CIP2b [1] | inhibition at 100 µM [2] [%] | Topo I inhibitory activity (gel) [5] | also measured |
| --- | --- | --- | --- | --- |
| C=CCn1c(=O)c2cnc(Nc3ccc(N4CCN(C)CC4)cc3)nc2n1-c1cccc(C(C)(C)O)n1 [MK1775, adavosertib] | did not show any noticeable potentiation or synergism | – | – | – |
| COc1cc([C@@H]2c3cc4c(cc3[C@@H](O[C@@H]3O[C@@H]5CO[C@@H](C)O[C@H]5[C@H](O)[C@H]3O)[C@H]3COC(=O)[C@H]23)OCO4)cc(OC)c1O [ETO, etoposide] | – | ~96 | – | – |
| Nc1ccn([C@@H]2O[C@H](CO)[C@@H](O)C2(F)F)c(=O)n1 [gemcitabine] | – | – | – | median survival [3]: 6.7-6.8 months |
| NC(=O)Nc1cc(-c2cccc(F)c2)sc1C(=O)N[C@H]1CCCNC1 [AZD7762] | did not show any noticeable potentiation or synergism | – | – | – |
| O=C(O)c1cn(C2CC2)c2cc(N3CCNCC3)c(F)cc2c1=O [CIP, ciprofloxacin] | – | 62 | neither PTX nor CIP did inhibit Topo I | survival curve of PTX with added compound vs PTX alone [4]: superimposed |
| CC[C@@]1(O)C(=O)OCc2c1cc1n(c2=O)Cc2cc3ccccc3nc2-1 [CAM, camptothecin] | – | – | potent inhibitor of Topo I | – |
